Assay results as given in patent US8455495B2, “Pyridazino-pyridinone compounds and methods of use” (Amgen Inc., priority 2008, dated 2013).
Where two headings read alike, the source gives them in different places.

Experiments:
[1] = system: production of IL-1β, IL-6, and TNF-α by PBMC activated with LPS; experiment: Lipopolysaccharide-activated PBMC cytokine production assay; type: cell-based; details: Homo sapiens, read-out: IC50 in PBMC cytokine production assay
Method: Lipopolysaccharide-Activated Pbmc Cytokine Production Assay
Test compounds were evaluated in vitro for the ability to inhibit the production of IL-1β, IL-6, and TNF-α by PBMC activated with bacterial lipopolysaccharide (LPS). Fresh leukocytes were obtained from a local blood bank, and peripheral blood mononuclear cells (PBMCs) were isolated by density gradient centrifugation on Ficol-Paque Plus (Pharmacia).
Preparation of Test Compound Stock Solutions
All reagents were prepared in RPMI 1640+10% v/v human AB serum+1× Pens/Strep/Glu (assay medium). Test compounds were dissolved in 100% DMSO and serially diluted in 96-well polypropylene round bottom micro titer plates (drug plate). Serial dilutions were then diluted 1:250 into assay medium to a 4× working concentration. Compound serial dilutions were half-log, 10 point titrations with a final starting concentration of 1 μM.
Treatment of Cells with Test Compounds and Activation with Lipopolysaccharide
LPS was prepared to a 4× concentration in assay medium. 100 μl of PBMC (1×10^6 cells/ml) were plated in a 96-well polystyrene flat bottom micro titer tissue culture plate and incubated with 50 μl of 4× compound serial dilution for 1 hour at 37° C., 5% CO2 in a tissue culture incubator. 50 μl 4×LPS or control was added and the plates were incubated at 37° C., 5% CO2 in a tissue culture incubator for 18 hours. The final DMSO concentration was 0.1%. The total volume was 200 μL. The final LPS concentration was 100 ng/mL. After 18 hours culture supernatants were removed and IL-1β, IL-6, and TNF-α presence in the supernatants was quantified using MSD ECL based technology.
20 μL of culture supernatant were added to MSD plates, and incubated for one hour at room temperature. 20 μL of detection antibody diluted in antibody diluent (1 μg/mL), and 110 μL of 2× Read Buffer P was added, and incubated for one hour at RT. Electrochemiluminescence was measured using the SECTOR HTS Imager (MSD, Gaithersburg, Md.).
Compound IC50 values were calculated as follows: The proportion of cytokine production in the presence of compound compared to the cytokine production in the presence of the DMSO vehicle alone (Hi control) was calculated using the formula: Percent Control (POC)=(compound−average Lo)/(average Hi−average Lo)*100.

recombinant human p38α = recombinant human p38α (Homo sapiens, UniProt Q16539); experiment: Purified and activated recombinant human p38α HTRF assay; type: biochemical; details: 1 nM p38α, 50 μM ATP, GST-ATF2 substrate, read-out: p38a IC50
recombinant human p38α, sequence (Q16539 whole entry): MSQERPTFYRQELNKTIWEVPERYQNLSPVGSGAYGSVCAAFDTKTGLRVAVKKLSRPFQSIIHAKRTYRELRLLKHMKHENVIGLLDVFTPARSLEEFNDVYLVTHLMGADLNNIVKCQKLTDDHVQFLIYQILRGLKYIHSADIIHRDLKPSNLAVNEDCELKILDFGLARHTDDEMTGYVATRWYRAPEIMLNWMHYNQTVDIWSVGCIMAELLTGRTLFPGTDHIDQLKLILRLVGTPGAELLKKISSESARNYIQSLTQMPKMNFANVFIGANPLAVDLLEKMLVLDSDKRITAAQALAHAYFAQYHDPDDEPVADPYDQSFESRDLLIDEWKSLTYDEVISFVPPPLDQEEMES
Method: Purified and Activated Recombinant Human p38α Assay Kinase Reaction Buffer: […] HTRF Detection Buffer: […] Serial Dilution of Compounds: […] Columns 6 and 12 (HI controls and LO controls respectively) in the drug plate were reserved as controls and contained only DMSO. Kinase Reaction: […] See table below for actual concentrations. In the absence of substrate, the background was measured as LO control. […] Assay Reagent Concentrations: […] HTRF Detection: […] After 60 minutes incubation at room temperature, the assay plate was read in a Discovery Plate Reader. The wells were excited with coherent 320 nm light and the ratio of delayed ([…] post excitation) emissions at […] (native europium fluorescence) and 665 nm (europium fluorescence transferred to allophycocyanin-an index of substrate phosphorylation) was determined (Park et al, 1999). Data Analysis: […] Data (consisting of POC and inhibitor concentration in μM) was fitted to a 4-parameter equation ([…]))), where A is the minimum y (POC) value, B is the maximum y (POC), C is the x (compound concentration) at the point of inflection and D is the slope factor, using a Levenburg-Marquardt non-linear regression algorithm. The inhibition constant (Ki) of the inhibitor was estimated from the IC50 (compound concentration at the point of inflection C) using the Cheng-Prussof equation: […] All results were expressed as the mean±the standard error of the mean. Data acquisition and non-linear regression algorithms were performed using Activity Base v5.2 and XL-fit software v4.1 respectively. All data was archived using Activity Base v5.2 software.

[2] = system: TNF-α production by LPS-activated THP1 cells; experiment: Lipopolysaccharide-activated THP1 cell TNF production assay; type: cell-based; details: Homo sapiens, read-out: IC50 in THP-1 cellular TNF production assay
Method: Lipopolysaccharide-Activated THP1 Cell TNF Production Assay
THP1 cells were resuspended in fresh THP1 media (RPMI 1640, 10% heat-inactivated FBS, 1×PGS, 1×NEAA, plus 30 μM βME) at a concentration of 1.5×10^6 cells per mL. One hundred microliters of cells per well were plated in a polystyrene 96-well tissue culture plate. 1.5 micrograms per mL of bacterial LPS was prepared in THP1 media and transferred to the first 11 columns of a 96-well polypropylene plate. Column 12 contained only THP1 media for the LO control. Compounds were dissolved in 100% DMSO and serially diluted 3 fold in a polypropylene 96-well microtiter plate (drug plate). Columns 6 and 12 were reserved as controls (HI controls and LO controls respectively) and contained only DMSO. 10 μL of LPS followed by one microliter of inhibitor compound from the drug plate was transferred to the cell plate. The treated cells were induced to synthesize and secrete TNF-α in a 37° C. humidified incubator with 5% CO2 for 3 hours. Fifty microliters of conditioned media was transferred to a 96-well MULTI-ARRAY™ 96-well small spot plate—custom coated with MAB610 containing 100 μL of 2× Read Buffer P supplemented with 0.34 nM AF210NA polyclonal Ab labeled with ruthenium (MSD—Sulfo-TAG™—NHS ester). After an overnight incubation at room temperature with shaking, the reaction was read on the Sector Imager™ 6000. […] The amount of secreted TNF-α in the presence of test compounds compared with that in the presence of DMSO vehicle alone (HI control) was calculated using the formula: % control (POC)=(cpd−average LO)/(average HI−averageLO)*100. Data (consisting of POC and inhibitor concentration in μM) was fitted to a 4-parameter equation (y=A+((B−A)/(1+((x/C)^D))), where A is the minimum y (POC) value, B is the maximum y (POC), C is the x (cpd concentration) at the point of inflection and D is the slope factor) using a Levenburg-Marquardt non-linear regression algorithm.

[3] = THP-1, THP1 cells, LPS, 3 hours

Cc1ccc(C(=O)Nc2ccon2)cc1-c1cc2cnnc(-c3ccc(F)cc3Cl)c2n(C)c1=O [Example 21, 3-(8-(2-chloro-4-fluorophenyl)-1-methyl-2-oxo-1,2-dihydropyrido[2,3-d]pyridazin-3-yl)-N-3-isoxazolyl-4-methylbenzamide]
IC50 ([1]; LPS 100 ng/mL, 18 hours): ≤ 1000 nM | IC50 (recombinant human p38α): 0.8 nM | IC50 [2, 3]: ≤ 1000 nM

Cn1c(=O)c(-c2cc(C(=O)NC3CC3)ccc2Cl)cc2cnnc(-c3ccc(F)cc3F)c21 [Example 5, 4-chloro-N-cyclopropyl-3-(8-(2,4-difluorophenyl)-1-methyl-2-oxo-1,2-dihydropyrido[3,2-d]pyridazin-3-yl)benzamide]
IC50 ([1]; 18 h): ≤ 1000 nM | IC50 (recombinant human p38α): 1.6 nM | IC50 ([2]; THP-1, 3 h): ≤ 1000 nM

Cc1ccc(C(N)=O)cc1-c1cc2cnnc(-c3ccc(F)cc3F)c2n(C)c1=O [Example 2, 3-(8-(2,4-difluorophenyl)-1-methyl-2-oxo-1,2-dihydropyrido[3,2-d]pyridazin-3-yl)-4-methylbenzamide]
IC50 ([1]; 18 h): ≤ 1000 nM | IC50 (recombinant human p38α): 3 nM | IC50 ([2]; THP-1, 3 h): ≤ 1000 nM

CCn1c(=O)c(-c2cc(C(=O)NC3CC3)cc(F)c2C)cc2cnnc(-c3ccc(F)cc3F)c21 [Example 22, N-cyclopropyl-3-(8-(2,4-difluorophenyl)-1-ethyl-2-oxo-1,2-dihydropyrido[2,3-d]pyridazin-3-yl)-5-fluoro-4-methylbenzamide]
IC50 ([1]; LPS 100 ng/mL, 18 hours): ≤ 1000 nM | IC50 (recombinant human p38α): 1.3 nM | IC50 [2, 3]: ≤ 1000 nM

Cc1ccc(C(=O)NC2CC2)cc1-c1cc2cnnc(-c3ccc(F)cc3Cl)c2n(C)c1=O [Example 13, N-cyclopropyl-3-(8-(2-chloro-4-fluorophenyl)-1-methyl-2-oxo-1,2-dihydropyrido[3,2-d]pyridazin-3-yl)-4-methylbenzamide]
IC50 ([1]; LPS 100 ng/mL, 18 hours): ≤ 1000 nM | IC50 (recombinant human p38α): 2.8 nM | IC50 [2, 3]: ≤ 1000 nM

Cc1c(F)cc(C(=O)NC2CC2)cc1-c1cc2cnnc(-c3ccccc3C(F)(F)F)c2n(C)c1=O [Example 11, N-cyclopropyl-3-fluoro-4-methyl-5-(1-methyl-2-oxo-8-(2-(trifluoromethyl)phenyl)-1,2-dihydropyrido[3,2-d]pyridazin-3-yl)benzamide]
IC50 ([1]; LPS 100 ng/mL, 18 hours): ≤ 1000 nM | IC50 (recombinant human p38α): 2.4 nM | IC50 [2, 3]: ≤ 1000 nM

Cc1ccc(C(=O)NC2CC2)cc1-c1cc2cnnc(-c3ccccc3C(F)(F)F)c2n(C)c1=O [Example 10, N-cyclopropyl-4-methyl-3-(1-methyl-2-oxo-8-(2-(trifluoromethyl)phenyl)-1,2-dihydropyrido[3,2-d]pyridazin-3-yl)benzamide]
IC50 ([1]; LPS 100 ng/mL, 18 hours): ≤ 1000 nM | IC50 (recombinant human p38α): 2.9 nM | IC50 [2, 3]: ≤ 1000 nM

Cc1ccc(C(=O)Nc2ccon2)cc1-c1cc2cnnc(-c3ccccc3Cl)c2n(C)c1=O [Example 25, 3-(8-(2-chlorophenyl)-1-methyl-2-oxo-1,2-dihydropyrido[2,3-d]pyridazin-3-yl)-N-3-isoxazolyl-4-methylbenzamide]
IC50 ([1]; LPS 100 ng/mL, 18 hours): ≤ 1000 nM | IC50 (recombinant human p38α): 0.9 nM | IC50 [2, 3]: ≤ 1000 nM

Cc1cc(F)ccc1-c1nncc2cc(-c3cc(C(=O)NC4CC4)cc(F)c3C)c(=O)n(C)c12 [Example 16, N-cyclopropyl-3-fluoro-5-(8-(4-fluoro-2-methylphenyl)-1-methyl-2-oxo-1,2-dihydropyrido[2,3-d]pyridazin-3-yl)-4-methylbenzamide]
IC50 ([1]; LPS 100 ng/mL, 18 hours): ≤ 1000 nM | IC50 (recombinant human p38α): 3 nM | IC50 [2, 3]: ≤ 1000 nM

Cc1ccccc1-c1nncc2cc(-c3cc(C(=O)NC4CC4)cc(F)c3C)c(=O)n(C)c12 [Example 7, N-cyclopropyl-3-fluoro-4-methyl-5-(1-methyl-2-oxo-8-o-tolyl-1,2-dihydropyrido[3,2-d]pyridazin-3-yl)benzamide]
IC50 ([1]; 18 h): ≤ 1000 nM | IC50 (recombinant human p38α): 1.5 nM | IC50 ([2]; THP-1, 3 h): ≤ 1000 nM

Cc1ccc(C(=O)NC2CC2)cc1-c1cc2cnnc(-c3ccccc3Cl)c2n(C)c1=O [Example 8, 3-(8-(2-chlorophenyl)-1-methyl-2-oxo-1,2-dihydropyrido[3,2-d]pyridazin-3-yl)-N-cyclopropyl-4-methylbenzamide]
IC50 ([1]; 18 h): ≤ 1000 nM | IC50 (recombinant human p38α): 1.6 nM | IC50 ([2]; THP-1, 3 h): ≤ 1000 nM

CCn1c(=O)c(-c2cc(C(=O)NC3CC3)ccc2C)cc2cnnc(-c3ccc(F)cc3F)c21 [Example 23, N-cyclopropyl-3-(8-(2,4-difluorophenyl)-1-ethyl-2-oxo-1,2-dihydropyrido[2,3-d]pyridazin-3-yl)-4-methylbenzamide]
IC50 ([1]; LPS 100 ng/mL, 18 hours): ≤ 1000 nM | IC50 (recombinant human p38α): 1.5 nM | IC50 [2, 3]: ≤ 1000 nM

Cc1ccc(C(=O)NC2CC2)cc1-c1cc2cnnc(-c3ccc(F)cc3C)c2n(C)c1=O [Example 12, N-cyclopropyl-3-(8-(4-fluoro-2-methylphenyl)-1-methyl-2-oxo-1,2-dihydropyrido[3,2-d]pyridazin-3-yl)-4-methylbenzamide]
IC50 ([1]; LPS 100 ng/mL, 18 hours): ≤ 1000 nM | IC50 (recombinant human p38α): 2.5 nM | IC50 [2, 3]: ≤ 1000 nM

Cc1c(F)cc(C(=O)NC2CC2)cc1-c1cc2cnnc(-c3ccc(F)cc3Cl)c2n(C)c1=O [Example 17, 3-(8-(2-chloro-4-fluorophenyl)-1-methyl-2-oxo-1,2-dihydropyrido[2,3-d]pyridazin-3-yl)-N-cyclopropyl-5-fluoro-4-methylbenzamide]
IC50 ([1]; LPS 100 ng/mL, 18 hours): ≤ 1000 nM | IC50 (recombinant human p38α): 1.8 nM | IC50 [2, 3]: ≤ 1000 nM

Cc1ccc(C(=O)NC2CC2)cc1-c1cc2cnnc(-c3ccc(C(F)(F)F)cc3F)c2n(C)c1=O [Example 9, N-cyclopropyl-3-(8-(2-fluoro-4-(trifluoromethyl)phenyl)-1-methyl-2-oxo-1,2-dihydropyrido[3,2-d]pyridazin-3-yl)-4-methylbenzamide]
IC50 ([1]; LPS 100 ng/mL, 18 hours): ≤ 1000 nM | IC50 (recombinant human p38α): 2 nM | IC50 [2, 3]: ≤ 1000 nM

Cc1c(F)cc(C(=O)NC2CC2)cc1-c1cc2cnnc(-c3cc(F)ccc3Cl)c2n(C)c1=O [Example 19, 3-(8-(2-chloro-5-fluorophenyl)-1-methyl-2-oxo-1,2-dihydropyrido[2,3-d]pyridazin-3-yl)-N-cyclopropyl-5-fluoro-4-methylbenzamide]
IC50 ([1]; LPS 100 ng/mL, 18 hours): ≤ 1000 nM | IC50 (recombinant human p38α): 1.6 nM | IC50 [2, 3]: ≤ 1000 nM
